This is an account of results in US20260138961A1, “MODULATORS OF MITOCHONDRIAL DNA REPLICATION” (Pretzel Therapeutics, Inc., priority 2022, published 2026).

The first experiment has as its target T1, wild type human POLγ (POLγA:WT) (Homo sapiens, UniProt P54098).
T1 sequence (P54098 1-1239): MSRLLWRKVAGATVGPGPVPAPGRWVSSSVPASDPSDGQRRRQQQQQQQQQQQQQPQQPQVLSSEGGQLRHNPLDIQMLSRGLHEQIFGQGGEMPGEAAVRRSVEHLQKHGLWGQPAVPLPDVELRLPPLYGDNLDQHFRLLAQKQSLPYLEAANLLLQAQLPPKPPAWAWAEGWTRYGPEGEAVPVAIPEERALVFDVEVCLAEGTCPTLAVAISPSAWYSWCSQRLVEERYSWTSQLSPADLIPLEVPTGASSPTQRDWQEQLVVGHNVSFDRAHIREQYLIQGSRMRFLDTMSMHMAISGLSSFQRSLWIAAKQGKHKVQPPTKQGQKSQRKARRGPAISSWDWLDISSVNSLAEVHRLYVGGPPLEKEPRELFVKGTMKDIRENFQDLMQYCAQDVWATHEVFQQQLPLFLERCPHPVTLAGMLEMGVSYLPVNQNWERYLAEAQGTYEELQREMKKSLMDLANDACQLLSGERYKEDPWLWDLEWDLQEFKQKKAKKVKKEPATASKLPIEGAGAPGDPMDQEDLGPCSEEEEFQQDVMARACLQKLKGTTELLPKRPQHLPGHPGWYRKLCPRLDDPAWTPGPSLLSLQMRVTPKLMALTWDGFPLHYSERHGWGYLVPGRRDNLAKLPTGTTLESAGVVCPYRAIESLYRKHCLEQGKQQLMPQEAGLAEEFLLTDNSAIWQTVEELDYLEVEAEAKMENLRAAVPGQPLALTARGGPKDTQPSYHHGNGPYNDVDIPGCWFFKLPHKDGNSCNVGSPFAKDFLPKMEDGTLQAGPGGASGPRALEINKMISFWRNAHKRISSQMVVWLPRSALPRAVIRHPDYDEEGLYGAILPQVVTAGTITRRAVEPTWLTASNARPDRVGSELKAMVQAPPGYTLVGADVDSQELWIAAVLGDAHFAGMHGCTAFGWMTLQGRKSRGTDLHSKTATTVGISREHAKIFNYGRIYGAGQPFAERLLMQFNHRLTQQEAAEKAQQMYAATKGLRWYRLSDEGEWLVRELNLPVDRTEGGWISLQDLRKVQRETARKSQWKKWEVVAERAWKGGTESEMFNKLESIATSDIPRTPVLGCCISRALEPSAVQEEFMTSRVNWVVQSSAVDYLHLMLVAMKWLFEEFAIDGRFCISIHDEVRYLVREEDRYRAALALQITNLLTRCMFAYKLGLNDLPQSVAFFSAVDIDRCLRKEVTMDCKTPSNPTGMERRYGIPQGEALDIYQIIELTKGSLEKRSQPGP
T1 sequence (Q9UHN1 1-485 partner): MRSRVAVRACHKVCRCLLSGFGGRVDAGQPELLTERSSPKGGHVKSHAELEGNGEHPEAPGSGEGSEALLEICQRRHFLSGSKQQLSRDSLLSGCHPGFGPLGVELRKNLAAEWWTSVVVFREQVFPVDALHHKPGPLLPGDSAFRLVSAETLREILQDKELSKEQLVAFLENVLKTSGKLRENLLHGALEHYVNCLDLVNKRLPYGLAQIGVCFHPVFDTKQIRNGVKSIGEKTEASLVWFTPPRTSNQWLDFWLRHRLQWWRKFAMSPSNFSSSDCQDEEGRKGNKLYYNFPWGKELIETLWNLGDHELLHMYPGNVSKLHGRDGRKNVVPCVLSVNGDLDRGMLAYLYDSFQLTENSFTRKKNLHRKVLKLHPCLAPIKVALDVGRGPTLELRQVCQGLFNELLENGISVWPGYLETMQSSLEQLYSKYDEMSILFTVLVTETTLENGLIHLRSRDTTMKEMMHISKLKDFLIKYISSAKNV
Briefly: DNA polymerization assay, wild type POLγ. Particulars: 0.1 μM dNTP, read-out: WT AC50 (μM) at 0.1 μM. Format: biochemical. Here is the method: DNA Polymerization Assay to Monitor Effects on Human Wildtype POLγ and Four Disease-Causing Mutant Variants of Human POLγ.
The ability of small molecules to stimulate the polymerase activity of POLγ was analyzed in a quantitative fluorescence SYBR Green I assay with fluorescence intensity (FI) readout.
In the presence of dNTPs, wild type human POLγ and mutant derivatives thereof were incubated with single-stranded, circular M13mp18 ssDNA hybridized to a short DNA oligonucleotide that functions as a primer for initiation of DNA synthesis. POLγ and mutant derivatives thereof will extend the primer and use the M13mp18 molecule as a template to synthesize long stretches of double-stranded DNA. SYBR Green I, which is a double-stranded DNA-binding dye, was used to quantify formation of double-stranded DNA in the reaction. When bound to double-stranded DNA, SYBR Green I fluorescence increases by up to 100-fold.
The assay was performed in the 384-well plate format. Upon addition of compounds, changes in double-stranded DNA synthesis activity can be monitored by following effects on fluorescent intensity.
The reactions also contained the accessory POLγB subunit, and the human mitochondrial single-stranded DNA binding protein (mtSSB).
The DNA template mixture used in the assay contained 0.5 nM primed M13 mp18 ssDNA, 400 nM mtSSB, 0.1 mM Tris-HCl (pH 8.0), 0.1 mM dNTP, 10 mM MgCl2, 0.1 mg/mL BSA, 1 mM TCEP solution, and 0.02% Triton X-100. The DNA template mixture for the wild type protein contained either 100 μM dNTP, 1 μM dNTP, or 0.1 μM dNTP, designated in Table 2 as 100 μM, 1 μM, and 0.1 μM, respectfully.
Microplates with compounds (0.1 μL in each well) to be tested in the assay were prepared from 10 mM compound stocks in 100% DMSO, and equal amounts of DMSO without any compound were added to positive and negative control wells.
The protein mixture was dispensed (5 μL into each well) into compound plates and incubated at 37° C. for 15 minutes. After incubation, 5 μL of the DNA template mixture was dispensed into each well. The plates were then incubated at 37° C. for 2 hours.
During incubation, a combined stop buffer and detection reagent solution was prepared. The buffer contained 25 mM EDTA (pH 8.0), 0.02% Triton X-100, and SYBR Green I [Invitrogen] diluted 10,000× (for fluorescent readout). EDTA will stop the enzymatic reaction by chelating magnesium ions.
As for `Cc1cc(S(=O)(=O)Nc2ccc(F)c(C(=O)N3CCC[C@H]3C)c2)c(C)cc1Cl` [Example 49, (R)-4-chloro-N-(4-fluoro-3-(2-methylpyrrolidine-1-carbonyl)phenyl)-2,5-dimethylbenzenesulfonamide], the AC50 stood at 2 µM.

For `Cc1ccc(C)c(S(=O)(=O)Nc2cccc(C(=O)N3CCSCC3C(N)=O)c2)c1` (stereo not drawn) [Example 41, 4-(3-((2,5-dimethylphenyl)sulfonamido)benzoyl) thiomorpholine-3-carboxamide], the AC50 was > 100 µM.

For `Cc1cc(S(=O)(=O)Nc2cccc(C(=O)N[C@H](C)CO)c2)c(C)cc1Cl` [Example 51, (R)-3-((4-chloro-2,5-dimethylphenyl)sulfonamido)-N-(1-hydroxypropan-2-yl)benzamide], the AC50 stood at 6 µM.

Turning to `Cc1ccc(C)c(S(=O)(=O)Nc2cccc(C(=O)N3CCCCCC3)c2)c1` [Example 32, N-(3-(azepane-1-carbonyl)phenyl)-2,5-dimethylbenzenesulfonamide], the AC50 turned out to be 12 µM.

As to `Cc1cc(S(=O)(=O)Nc2cccc(C(=O)N3CCN(C)C[C@H]3C)c2)c(C)cc1Cl` [Example 54, (R)-4-chloro-N-(3-(2,4-dimethylpiperazine-1-carbonyl)phenyl)-2,5-dimethylbenzenesulfonamide], the AC50 came out at 1 µM.

The experiment is the same for the next values; noted with them: 100 μM dNTP, read-out: WT AC50 (μM) at 100 μM.
As for `Cc1cc(S(=O)(=O)Nc2csc(C3CCOCC3)n2)c(C)cc1Cl` [Example 167, 4-chloro-2,5-dimethyl-N-(2-(tetrahydro-2H-pyran-4-yl)thiazol-4-yl)benzenesulfonamide], the AC50 came to 4 µM.

Turning to `CC[C@@H]1CCCN1C(=O)c1cccc(NS(=O)(=O)c2cc(C)c(Cl)cc2C)c1` [Example 65, (R)-4-chloro-N-(3-(2-ethylpyrrolidine-1-carbonyl)phenyl)-2,5-dimethylbenzenesulfonamide], the AC50 is 8 µM.

Turning to `Cc1cc(S(=O)(=O)Nc2csc(C(=O)N3CCC[C@@H]3C)n2)c(C)cc1Cl` [Example 175, (S)-4-chloro-2,5-dimethyl-N-(2-(2-methylpyrrolidine-1-carbonyl)thiazol-4-yl)benzenesulfonamide], the AC50 stood at 3 µM.

Regarding `Cc1cc(S(=O)(=O)Nc2csc(-c3ccn(C)n3)n2)c(C)cc1Cl` [Example 181, 4-chloro-2,5-dimethyl-N-(2-(1-methyl-1H-pyrazol-3-yl)thiazol-4-yl)benzenesulfonamide], the AC50 was > 10 µM.

Regarding `Cc1cc(S(=O)(=O)Nc2csc(C(=O)N3CCCC3)n2)c(C)cc1Cl` [Example 166, 4-chloro-2,5-dimethyl-N-(2-(pyrrolidine-1-carbonyl)thiazol-4-yl)benzenesulfonamide], the AC50 was 2 µM.

As to `Cc1cc(S(=O)(=O)Nc2csc(-c3ccncc3)n2)c(C)cc1Cl` [Example 176, 4-chloro-2,5-dimethyl-N-(2-(pyridin-4-yl)thiazol-4-yl)benzenesulfonamide], the AC50 is > 100 µM.

As to `Cc1cnc(-c2cccc(NS(=O)(=O)c3cc(C)c(Cl)cc3C)c2)s1` [Example 21, 4-chloro-2,5-dimethyl-N-(3-(5-methylthiazol-2-yl)phenyl)benzenesulfonamide], the AC50 amounted to 1 µM.

Consider `Cc1cc(S(=O)(=O)Nc2cccc(C(=O)N(C)C(C)CO)c2)c(C)cc1Cl` (single isomer, unassigned) [Example 15, 3-((4-chloro-2,5-dimethylphenyl)sulfonamido)-N-(1-hydroxypropan-2-yl)-N-methylbenzamide], for which the AC50 is > 10 µM.

With `Cc1cc(S(=O)(=O)Nc2cn(Cc3ccccc3)cn2)c(C)cc1Cl` [Example 168, N-(1-benzyl-1H-imidazol-4-yl)-4-chloro-2,5-dimethylbenzenesulfonamide], the AC50 is > 10 µM.

In the case of `Cc1cc(S(=O)(=O)Nc2cn(C)c(-c3ccccc3)n2)c(C)cc1Cl` [Example 170, 4-chloro-2,5-dimethyl-N-(1-methyl-2-phenyl-1H-imidazol-4-yl)benzenesulfonamide], the AC50 is > 10 µM.
